{
  "source": "paper PMC5814837",
  "about": "(Pest Management Science, 2017)",
  "key": {"[1]": {"biological_target": "mitochondrial succinate dehydrogenase (SDH) (Zymoseptoria tritici, UniProt F9X9V6+F9XH52+O42772, N33T/N34T/V106L)", "assay": "biochemical", "details": "IC50"}, "[2]": {"biological_target": "mitochondrial succinate dehydrogenase (SDH) (Zymoseptoria tritici, UniProt F9X9V6+F9XH52+O42772, N33T/N34T)", "assay": "biochemical", "details": "IC50"}},
  "data": [
    {"smiles": "O=C(NCCc1ncc(C(F)(F)F)cc1Cl)c1ccccc1C(F)(F)F", "note": "[Fluopyram, fluopyram]", "values": [
      {"measurement": "IC50", "setting": "[1]", "value": "12.4 ± 1.32", "unit": "µM"},
      {"measurement": "IC50", "setting": "[2]", "value": "0.134 ± 0.067", "unit": "µM"}
    ]},
    {"smiles": "Cc1cc(OC(C)C)ccc1C(=O)C(C)(C)NC(=O)c1sccc1C", "note": "[Isofetamid, N‐[1,1‐dimethyl‐2‐(4‐isopropoxy‐o‐tolyl)‐2‐oxoethyl]‐3‐methylthiophene‐2‐carboxamide]", "values": [
      {"measurement": "IC50", "setting": "[1]", "value": "> 32", "unit": "µM"},
      {"measurement": "IC50", "setting": "[2]", "value": "0.046 ± 0.009", "unit": "µM"}
    ]},
    {"smiles": "Cn1cc(C(=O)Nc2ccc(F)cc2-c2ccc(Cl)c(Cl)c2)c(C(F)F)n1", "note": "[Bixafen, bixafen]", "values": [
      {"measurement": "IC50", "setting": "[1]", "value": "0.044 ± 0.011", "unit": "µM"},
      {"measurement": "IC50", "setting": "[2]", "value": "0.031 ± 0.017", "unit": "µM"}
    ]}
  ]
}
